Where two headings read alike, the source gives them in different places.
Legend:
[1] = system: T016P patient-derived pancreatic cancer organoid model; assay: organoid colony formation assay, T016P; format: cell-based, human
Procedure: The IC50 values for Compound 1 inhibition of colony formation and viability were determined for the patient-derived colon cancer organoid models: SU60, T002C, SU62, SU34, SU103, T03SC, and SU106, patient-derived pancreatic cancer organoid models PA016SF, PA0143F, T016P, and T028P, and a patient-derived breast cancer organoid model FS5S3.
Colony formation and viability assays were performed in multiwell plates seeded with organoids using an in vitro culture system composed of a Matrigel layer, media containing a defined set of growth factors, and co-culture with Wnt3 A-secreting mouse embryonic fibroblasts. Assays were initiated by adding either DMSO as a negative control, or an inhibitor panobinostatat 100×IC50 concentration as a positive control, or serially diluted Compound 1. The cultures were incubated for 168 or 144 hours after which the number of viable organoids in each test well was assessed respectively using one of two detection methods: CTG or staining with calcein-AM followed by imaging and colony counting. Colony count or viability of cells treated with compound 1 was expressed as a percent of the negative control. Aggregated Percent of Control values were plotted against the corresponding Compound 1 concentration and the absolute IC50 value was determined from a non-linear regression curve as the concentration where inhibition was 50% of the control.

[2] = system: KYSE-150 human esophageal cancer xenograft; format: in vivo; settings: for Median Tumor Volumes Day 19: KYSE-150 CDX Study #1, female NSG mice; for % TGI / Median Tumor Volumes Diff.: KYSE-150 Study #1; for % TGI: Day 19; for Median Tumor Volumes Diff.: Day 19 minus Day 1
Procedure: The therapeutic in vivo efficacy of Compound 1 was evaluated in SU60 colorectal cancer, KYSE-150 esophageal cancer, COH70 triple-negative breast cancer, GXA-3036 gastric adenocarcinoma and OCI-LY19 Diffuse Large B-Cell Non-Hodgkin's Lymphoma xenograft models. In all studies, efficacy was determined based on percent tumor growth inhibition (TGI), differences in mean tumor growth, and statistical assessment of differences in net tumor volume distributions on the day of TGI analysis between control and treated animals. Tolerability was assessed based on differences in mean body weights between control and treated animals over the course of the study.
Study #1—The in vivo therapeutic efficacy and tolerability of Compound 1, administered orally as the lysine salt suspended in a vehicle comprised of 10% PEG 400 and 90% of 0.5% methylcellulose (MC), was evaluated in the KYSE-150 ESCC CDX model established in female NSG mice. As presented in Table 5, […] at 5, 15, or 50 mg/kg (free acid equivalents) administered on the 3 on/4 off schedule yielded dose-dependent TGIs of 19%, 50%, and 72%, respectively. […] As shown in FIG. 11 (left panel), tumor growth in the Compound 1-treated groups was reduced relative to control animals. The relative rates of tumor growth among the various Compound 1-treated groups were consistent with the TGI attained at study end. As presented in FIG. 11 (right panel), Compound 1 appeared well-tolerated with nominal mean body weight gains over the course of the study. Each mouse was inoculated subcutaneously in the right flank with 1×10^7 KYSE-150 tumor cells (0.1 ml) suspended in PBS. When the average tumor size reached ˜117 mm3, test animals were randomized into 4 groups consisting of 9 mice per group and treatments were initiated. Control mice received 10% PEG 400 and 90% of 0.5% MC vehicle PO 3 on/4 off. Treated mice received the Compound 1 lysine salt form suspended in vehicle at 5, 15, or 50 mg/kg on the same schedule. TGI was determined on Day 19 as (1−Difftreated/Diffcontrol)×100; The difference mean net tumor volumes on the day of TGI analysis for treated versus control animals was evaluated statistically using one-way ANOVA followed by Dunnett's multiple comparisons test; Adjusted p-values are shown where a calculated probability (p)≤0.05 was considered statistically significant. Individual tumors were measured twice weekly in three dimensions using a caliper, and the tumor volumes (TV) in mm3 were calculated using the formula: TV=0.5 (l×w×h), where l, w, and h are the tumor length, width, and height in mm, respectively; Mean tumor volumes SEM were calculated and plotted versus days of dosing (left panel). Body weights were measured twice weekly. Body weights±SEM were calculated and plotted versus days of dosing (right panel).

[3] = system: tumor initiating cells of SU60 xenograft tumors; assay: functional in vivo tumorigenicity assay (limiting dilution assay); design: species or system mice
Procedure: The ability of Compound 1 to affect tumorigenic potential was analyzed by flow cytometry analysis of the tumorigenic cell population and functional in vivo tumorigenicity assay (limiting dilution assay).
To assess the effect of Compound 1 on tumorigenic cell population, Compound 1 was used to treat SU60 xenograft tumors. NSG female mice engrafted with SU60 cells (7 mice each group) were administered Compound 1 at 40 mg/kg PO QD×21. The day after the last dose, three tumors nearest to the mean size from each group were dissociated and the single cells were used to perform: 1) flow cytometry analysis of the tumorigenic cell population and 2) functional in vivo tumorigenicity assay (limiting dilution assay). Flow Cytometry Analysis of Tumorigenic Cell Population after Compound 1 Treatment
To study the effect of Compound 1 on tumor initiating cell (TIC) frequency in CRC tumors, we evaluated the tumorigenic potential of SU60 xenograft cells posttreatment with Compound 1 or vehicle. At the end of dosing, SU60 dissociated cells from three animals per group nearest to the mean size were injected in a limiting dilution manner into recipient NSG mice and tumor volumes were measured. The number of cells required for tumor formation was reduced in the Compound 1-treated group. The reduction in TIC frequency was 4.4-fold (FIG. 17 and Table 10). Differentiation of progenitor cells is a potential explanation for this reduction.

MDA-MB-231 cells = assay: cell cycle analysis in MDA-MB-231 cells; format: cell-based
Procedure: FIG. 3 illustrates that Compound 1 induces cell cycle arrest in S-phase. […] Cell cycle analysis was performed with MDA-MB-231 cells and using MultiCycle AV DNA analysis software.

[4] = SU60 cells from tumors treated 40 mg/kg QD, injected into recipient NSG mice, 50 cells
[5] = SU60 cells from tumors treated 40 mg/kg QD, injected into recipient NSG mice, 500 cells
[6] = SU60 cells from tumors treated 40 mg/kg QD, injected into recipient NSG mice, 1000 cells

SMILES: CC(C)c1ccc(N(C)c2ccc3c(c2)OCC[C@H]3CNc2cnccc2C(=O)O)cc1 [Compound 1, 3-({[(4R)-7-{methyl[4-(propan-2-yl)phenyl]amino}-3,4-dihydro-2H-1-benzopyran-4-yl]methyl}amino)pyridine-4-carboxylic acid]
- IC50 ([1]; Homo sapiens, T016P pancreatic carcinoma model): > 10 µM
- IC50 ([1]; T016P human pancreatic carcinoma organoid, 144 hrs, Colony Counts): > 10 µM
- Median Tumor Volumes Day 19 ([2]; lysine salt 5 mg/kg (free acid equivalents) PO 3 on/4 off): 824 mm^3
- Median Tumor Volumes Day 19 ([2]; lysine salt 15 mg/kg (free acid equivalents) PO 3 on/4 off): 569 mm^3
- Median Tumor Volumes Day 19 ([2]; lysine salt 50 mg/kg (free acid equivalents) PO 3 on/4 off): 359 mm^3
- % TGI ([2]; 5 mg/kg PO 3 on/4 off, 5 mg/kg): 19%
- % TGI ([2]; 5 mg/kg PO 3 on/4 off, listed as compound 4, 5 mg/kg): 19%
- Median Tumor Volumes Diff. ([2]; 5 mg/kg PO 3 on/4 off): 719 mm^3
- % TGI ([2]; 15 mg/kg PO 3 on/4 off, 15 mg/kg): 50%
- % TGI ([2]; 15 mg/kg PO 3 on/4 off, listed as compound 4, 15 mg/kg): 50%
- Median Tumor Volumes Diff. ([2]; 15 mg/kg PO 3 on/4 off): 442 mm^3
- % TGI ([2]; 50 mg/kg PO 3 on/4 off, 50 mg/kg): 72%
- % TGI ([2]; 50 mg/kg PO 3 on/4 off, listed as compound 4, 50 mg/kg): 72%
- Median Tumor Volumes Diff. ([2]; 50 mg/kg PO 3 on/4 off): 250 mm^3
- Mean Tumor Volume (50 cells) [3, 4]: 209 mm^3
- Tumor Take Rate (50 cells) [3, 4]: 3/10
- Mean Tumor volume (500 cells) [3, 5]: 589 mm^3
- Tumor Take Rate (500 cells) [3, 5]: 5/10
- Mean Tumor Volume (1000 cells) [3, 6]: 830 mm^3
- Tumor Take Rate (1000 cells) [3, 6]: 7/10
- reduction in TIC frequency ([3]; SU60 xenograft, 40 mg/kg PO QD x21, vs vehicle): 4.4 fold
- effect on cell cycle (MDA-MB-231 cells): increased proportion of cells in S-phase in a dose-dependent manner

Source: patent US20250025451A1, “TREATMENT OF CANCER WITH KDM4 INHIBITORS” (Celgene Corporation, priority 2021, published 2025)
